Experimental data as given in patent publication US11851411B2, “Herbicidal compounds” (SYNGENTA CROP PROTECTION AG, priority 2018, dated 2023).

Tests used:
Type in all cases: in vivo
[1] = tested on: Amaranthus retoflexus (AMARE); test: Glasshouse herbicide test, pre-emergence; details: PRE Application; 500 g/h; evaluated after 13 days
Experimental: (§1) Seeds of a variety of test species are shown in standard soil in pots (Lolium perenne (LOLPE), Amaranthus retoflexus (AMARE), Abutilon theophrasti (ABUTH), Setaria faberi (SETFA), Echinochloa crus-galli (ECHCG), Ipomoea hederacea (IPOHE)). After cultivation for one day (pre-emergence) or after 8 days cultivation (post-emergence) under controlled conditions in a glasshouse (at 24/16° C., day/night; 14 hours light; 65% humidity), the plants are sprayed with an aqueous spray solution derived from the formulation of the technical active ingredient in acetone/water (50:50) solution containing 0.5% Tween 20 (polyoxyethelyene sorbitan monolaurate, CAS RN 9005-64-5). Compounds are applied at 500 g/h. The test plants are then grown in a glasshouse under controlled conditions in a glasshouse (at 24/16° C., day/night; 14 hours light; 65% humidity) and watered twice daily. After 13 days for pre and post-emergence, the test is evaluated for the percentage damage caused to the plant. The biological activities are shown in the following table on a five point scale (5=80-100%; 4=60-79%; 3=40-59%; 2=20-39%; 1=0-19%).

Setaria faberi (SETFA) [2] = test: Glasshouse herbicide test, pre-emergence; details: PRE Application; 500 g/h; evaluated after 13 days
Experimental: as §1

[3] = tested on: Ipomoea hederacea (IPOHE); test: Glasshouse herbicide test, pre-emergence; details: PRE Application; 500 g/h; evaluated after 13 days
Experimental: as §1

[4] = tested on: Echinochloa crus-galli (ECHCG); test: Glasshouse herbicide test, pre-emergence; details: PRE Application; 500 g/h; evaluated after 13 days
Experimental: as §1

[5] = tested on: Abutilon theophrasti (ABUTH); test: Glasshouse herbicide test, pre-emergence; details: PRE Application; 500 g/h; evaluated after 13 days
Experimental: as §1

[6] = tested on: Amaranthus retoflexus (AMARE); test: Glasshouse herbicide test, post-emergence; details: POST Application; 500 g/h; evaluated after 13 days
Experimental: as §1

Setaria faberi (SETFA) [7] = test: Glasshouse herbicide test, post-emergence; details: POST Application; 500 g/h; evaluated after 13 days
Experimental: as §1

[8] = tested on: Ipomoea hederacea (IPOHE); test: Glasshouse herbicide test, post-emergence; details: POST Application; 500 g/h; evaluated after 13 days
Experimental: as §1

[9] = tested on: Echinochloa crus-galli (ECHCG); test: Glasshouse herbicide test, post-emergence; details: POST Application; 500 g/h; evaluated after 13 days
Experimental: as §1

[10] = tested on: Abutilon theophrasti (ABUTH); test: Glasshouse herbicide test, post-emergence; details: POST Application; 500 g/h; evaluated after 13 days
Experimental: as §1

Compound	percentage damage caused to the plant, five point scale, AMARE [1]	percentage damage caused to the plant, five point scale, SETFA (Setaria faberi (SETFA) [2])	percentage damage caused to the plant, five point scale, IPOHE [3]	percentage damage caused to the plant, five point scale, ECHCG [4]	percentage damage caused to the plant, five point scale, ABUTH [5]	percentage damage caused to the plant, five point scale, AMARE [6]	percentage damage caused to the plant, five point scale, SETFA (Setaria faberi (SETFA) [7])	percentage damage caused to the plant, five point scale, IPOHE [8]	percentage damage caused to the plant, five point scale, ECHCG [9]	percentage damage caused to the plant, five point scale, ABUTH [10]
CON(C)c1c(C(F)(F)F)ccc(C(=O)Nc2nnnn2C)c1Cl [Compound 1.037]	5 (5=80-100%)	5 (5=80-100%)	5 (5=80-100%)	5 (5=80-100%)	5 (5=80-100%)	5 (5=80-100%)	5 (5=80-100%)	5 (5=80-100%)	5 (5=80-100%)	5 (5=80-100%)
CCn1nnnc1NC(=O)c1ccc(S(C)(=O)=O)c(N(C)OC)c1Cl [Compound 1.044]	5 (5=80-100%)	5 (5=80-100%)	5 (5=80-100%)	5 (5=80-100%)	5 (5=80-100%)	5 (5=80-100%)	5 (5=80-100%)	5 (5=80-100%)	5 (5=80-100%)	5 (5=80-100%)
CCCn1nnnc1NC(=O)c1ccc(S(C)(=O)=O)c(N(C)OC)c1Cl [Compound 1.045]	5 (5=80-100%)	5 (5=80-100%)	5 (5=80-100%)	5 (5=80-100%)	5 (5=80-100%)	5 (5=80-100%)	5 (5=80-100%)	5 (5=80-100%)	5 (5=80-100%)	5 (5=80-100%)
CON(C(=O)C(C)C)c1c(C(F)(F)F)ccc(C(=O)Nc2nnnn2C)c1Cl [Compound 1.049]	5 (5=80-100%)	5 (5=80-100%)	5 (5=80-100%)	5 (5=80-100%)	5 (5=80-100%)	5 (5=80-100%)	5 (5=80-100%)	5 (5=80-100%)	5 (5=80-100%)	5 (5=80-100%)
CCC(=O)N(OC)c1c(C(F)(F)F)ccc(C(=O)Nc2nnnn2C)c1Cl [Compound 1.050]	5 (5=80-100%)	5 (5=80-100%)	4 (4=60-79%)	5 (5=80-100%)	5 (5=80-100%)	5 (5=80-100%)	5 (5=80-100%)	5 (5=80-100%)	5 (5=80-100%)	5 (5=80-100%)
CCCS(=O)(=O)c1ccc(C(=O)Nc2nnnn2C)c(Cl)c1N(C)OC [Compound 1.054]	5 (5=80-100%)	5 (5=80-100%)	5 (5=80-100%)	5 (5=80-100%)	5 (5=80-100%)	5 (5=80-100%)	5 (5=80-100%)	5 (5=80-100%)	5 (5=80-100%)	5 (5=80-100%)
CCON(C)c1c(S(C)(=O)=O)ccc(C(=O)Nc2nnnn2CC)c1Cl [Compound 1.055]	5 (5=80-100%)	5 (5=80-100%)	5 (5=80-100%)	5 (5=80-100%)	5 (5=80-100%)	5 (5=80-100%)	5 (5=80-100%)	5 (5=80-100%)	5 (5=80-100%)	5 (5=80-100%)
CCCON(C)c1c(S(C)(=O)=O)ccc(C(=O)Nc2nnnn2C)c1Cl [Compound 1.056]	5 (5=80-100%)	5 (5=80-100%)	5 (5=80-100%)	5 (5=80-100%)	5 (5=80-100%)	5 (5=80-100%)	5 (5=80-100%)	5 (5=80-100%)	5 (5=80-100%)	5 (5=80-100%)
CC(C)ON(C)c1c(S(C)(=O)=O)ccc(C(=O)Nc2nnnn2C)c1Cl [Compound 1.057]	5 (5=80-100%)	5 (5=80-100%)	5 (5=80-100%)	5 (5=80-100%)	5 (5=80-100%)	5 (5=80-100%)	5 (5=80-100%)	5 (5=80-100%)	5 (5=80-100%)	5 (5=80-100%)
CCS(=O)(=O)c1ccc(C(=O)Nc2nnnn2C)c(Cl)c1N(C)OC [Compound 1.062]	5 (5=80-100%)	5 (5=80-100%)	5 (5=80-100%)	5 (5=80-100%)	5 (5=80-100%)	5 (5=80-100%)	5 (5=80-100%)	5 (5=80-100%)	5 (5=80-100%)	5 (5=80-100%)
CON(C(=O)C(C)(C)C)c1c(C(F)(F)F)ccc(C(=O)Nc2nnnn2C)c1F [Compound 1.063]	5 (5=80-100%)	5 (5=80-100%)	2 (2=20-39%)	5 (5=80-100%)	5 (5=80-100%)	5 (5=80-100%)	5 (5=80-100%)	4 (4=60-79%)	5 (5=80-100%)	5 (5=80-100%)
CON(C)c1c(C(F)(F)F)ccc(C(=O)Nc2nnnn2C)c1F [Compound 1.065]	5 (5=80-100%)	5 (5=80-100%)	5 (5=80-100%)	5 (5=80-100%)	5 (5=80-100%)	5 (5=80-100%)	5 (5=80-100%)	5 (5=80-100%)	5 (5=80-100%)	5 (5=80-100%)
